One compound from patent publication US6481154B1, “Method of large-scale propagation of trees of genus Swietenia” (Sumitomo Forestry Co., Ltd., priority 2000, dated 2002) can be followed below.

In this assay the test system is terminal buds of Swietenia macrophylla. Nature of the assay: Induction of multiple shoots from terminal buds on modified B5 medium. Type of assay: cell-based. The note with it: IBA 0 mg/l. On the procedure:
Terminal buds were excised from mature trees of Swietenia macrophylla and subjected to surface sterilization in 70% ethanol for 30 seconds and then in 2% sodium hypochlorite for 6 minutes, washed several times with sterilized water and dried on a sterilized filter paper.
To a modified B5 medium (which was a B5 medium amounts of all the components were each made a half were added 30 g/l of sucrose, and 0 to 0.02 mg/l of IBA and 0.02 to 1.0 mg/l of BAP as plant growth regulators, followed by pH adjustment to 5.7 and sterilization. The medium so prepared was used as a multiple shoots-inducing medium, and was used at a culturing temperature of 26±2° C. under illumination of fluorescent lamps for 16 hours per day (3,000 to 9,000 Lux). One to 3 months after the start of culturing, multiple shoots were induced.

With `c1ccc(CNc2ncnc3[nH]cnc23)cc1` [BAP, benzylaminopurine], the “Number of formed multiple shoots/Number of total tested terminal buds” value reads like this: (BAP 0.02 mg/l) 1/20; (BAP 0.2 mg/l) 5/20; (BAP 1.0 mg/l) 8/20.
